Literature values in patent US5017613A, “Valproic acid preparations” (Sanofi, S. A., priority 1983, dated 1991).

Settings: after oral administration

SMILES: CCCC(CCC)C(=O)O [valproic acid, Dipropylacetic or valproic acid]
- bioavailability in the blood of valproic acid: ~100%
